We go through 23 compounds from patent US20050009840A1 (SUGEN, INC., priority 2003, published 2005).

pIC50: −log10 of the molar value.

This assay deals with T1, Met kinase domain (GST fusion protein) (Homo sapiens, UniProt P08581).
T1 construct: Purified GST fusion protein containing the Met kinase domain
T1 sequence (P08581 1078-1345 limits assumed): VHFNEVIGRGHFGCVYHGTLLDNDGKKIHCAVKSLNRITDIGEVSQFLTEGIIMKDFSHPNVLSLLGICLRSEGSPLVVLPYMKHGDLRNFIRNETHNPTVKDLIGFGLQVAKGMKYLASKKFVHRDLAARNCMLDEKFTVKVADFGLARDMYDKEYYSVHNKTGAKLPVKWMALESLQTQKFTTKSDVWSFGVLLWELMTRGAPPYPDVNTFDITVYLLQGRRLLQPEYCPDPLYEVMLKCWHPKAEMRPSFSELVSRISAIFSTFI
In words: Met transphosphorylation assay (ELISA, poly(glu-tyr) substrate).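 Also: Cell-free ELISA with plate-bound poly(Glu:Tyr 4:1) phosphorylated by GST-fused Met kinase domain plus ATP and Mn2+, phosphotyrosine detected by anti-phosphotyrosine antibody with HRP and ABTS read-out.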 Conditions: read-out: Met IC50. The assay is classed as biochemical.
For `CC(Oc1nc(-c2cccc(C(=O)N3CC[C@@H](N)C3)c2)cnc1N)c1c(Cl)ccc(F)c1Cl` (stereo partly drawn) [II-85, (3-{5-Amino-6-[1-(2,6-dichloro-3-fluoro-phenyl)-ethoxy]-pyrazin-2-yl}-phenyl)-[(3R)-3-amino-pyrrolidin-1-yl)-m-ethanone], the negative-log IC50 (pIC50) was 6.96.

For `CC(=O)N1CCN(CCNC(=O)c2cccc(-c3cnc(N)c(OC(C)c4c(Cl)ccc(F)c4Cl)n3)c2)CC1` (centres unmarked) [II-87, N-[2-(4-Acetyl-piperazin-1-yl)-ethyl]-3-{5-amino-6-[1-(2,6-dichloro-3-fluoro-phenyl)-ethoxy]-pyrazin-2-yl}-benzamide], the pIC50 is 6.73.

With `CC(Oc1nc(-c2cccc(C(=O)NCCCN3CCCC3)c2)cnc1N)c1c(Cl)ccc(F)c1Cl` (centres unmarked) [II-91, 3-{5-Amino-6-[1-(2,6-dichloro-3-fluoro-phenyl)-ethoxy]-pyrazin-2-yl}-N-(3-pyrrolidin-1-yl-propyl)-benzamide], the negative-log IC50 (pIC50) is 6.82.

For the compound `CC(Oc1nc(-c2cccc(C(=O)N3CCC(N4CCCC4)CC3)c2)cnc1N)c1c(Cl)ccc(F)c1Cl` (centres unmarked) [II-92, (3-{5-Amino-6-[1-(2,6-dichloro-3-fluoro-phenyl)-ethoxy]-pyrazin-2-yl}-phenyl)-(4-pyrrolidin-1-yl-piperidin-1-yl)-methanone], the pIC50 was 6.82.

Turning to `Nc1ncc(-c2ccc(C(=O)NCCN3CCOCC3)cc2)nc1OCc1cccc(F)c1C(F)(F)F` [II-94, 4-[5-Amino-6-(3-fluoro-2-trifluoromethyl-benzyloxy)-pyrazin-2-yl]-N-(2-morpholin-4-yl-ethyl)-benzamide], the pIC50 was 6.66.

As for `CN1CCC(NC(=O)c2ccc(-c3cnc(N)c(OCc4cccc(F)c4C(F)(F)F)n3)cc2)CC1` [II-95, 4-[5-Amino-6-(3-fluoro-2-trifluoromethyl-benzyloxy)-pyrazin-2-yl]-N-(1-methyl-piperidin-4-yl)-benzamide], the pIC50 was 7.09.

As to `CC(Oc1nc(-c2cccc(C(=O)NCCCN3CCCC3)c2)cnc1N)c1c(Cl)ccc(F)c1Cl` (centres unmarked) [II-96, 3-{5-Amino-6-[1-(2,6-dichloro-3-fluoro-phenyl)-ethoxy]-pyrazin-2-yl}-N-(3-pyrrolidin-1-yl-propyl)-benzamide], the pIC50 was 6.82.

Turning to `CC(Oc1nc(-c2cccc(C(=O)NCCCN3CCCC3)c2)cnc1N)c1c(F)ccc(F)c1Cl` (centres unmarked) [II-97, 3-{5-Amino-6-[1-(2-chloro-3,6-difluoro-phenyl)-ethoxy]-pyrazin-2-yl}-N-(3-pyrrolidin-1-yl-propyl)-benzamide], the pIC50 is 6.46.

In the case of `CC(Oc1nc(-c2cccc(C(=O)NC3CCN(C)CC3)c2)cnc1N)c1c(F)ccc(F)c1Cl` (centres unmarked) [II-98, 3-{5-Amino-6-[1-(2-chloro-3,6-difluoro-phenyl)-ethoxy]-pyrazin-2-yl}-N-(1-methyl-piperidin-4-yl)-benzamide], the pIC50 was 6.68.

Consider `CC(Oc1nc(-c2cccc(C(=O)NCCN3CCCC3)c2)cnc1N)c1c(F)ccc(F)c1Cl` (centres unmarked) [II-99, 3-{5-Amino-6-[1-(2-chloro-3,6-difluoro-phenyl)-ethoxy]-pyrazin-2-yl}-N-(2-pyrrolidin-1-yl-ethyl)-benzamide], for which the pIC50 is 6.74.

As to `CC(Oc1nc(-c2cccc(C(=O)NCCN3CCOCC3)c2)cnc1N)c1c(F)ccc(F)c1Cl` (centres unmarked) [II-100, 3-{5-Amino-6-[1-(2-chloro-3,6-difluoro-phenyl)-ethoxy]-pyrazin-2-yl}-N-(2-morpholin-4-yl-ethyl)-benzamide], the negative logarithm of the IC50 (pIC50) was 6.51.

Consider `CC(=O)N1CCN(CCNC(=O)c2cccc(-c3cnc(N)c(OC(C)c4c(F)ccc(F)c4Cl)n3)c2)CC1` (centres unmarked) [II-101, N-[2-(4-Acetyl-piperazin-1-yl)ethyl]-3-{5-amino-6-[1-(2-chloro-3,6-difluoro-phenyl)-ethoxy]-pyrazin-2-yl}-benzamide], for which the pIC50 is 6.19.

Regarding `CC(Oc1nc(-c2ccc(C(=O)NCCCN3CCCC3)cc2)cnc1N)c1c(F)ccc(F)c1Cl` (centres unmarked) [II-109, 4-{5-Amino-6-[1-(2-chloro-3,6-difluoro-phenyl)-ethoxy]-pyrazin-2-yl}-N-(3-pyrrolidin-1-yl-propyl)-benzamide], the pIC50 is 7.00.

With `CC(Oc1nc(-c2ccc(C(=O)N3CCN(C)CC3)cc2)cnc1N)c1c(F)ccc(F)c1Cl` (centres unmarked) [II-110, (4-{5-Amino-6-[1-(2-chloro-3,6-difluoro-phenyl)-ethoxy]-pyrazin-2-yl}-phenyl)-(4-methyl-piperazin-1-yl)-methanone], the negative logarithm of the IC50 (pIC50) was 6.80.

On to `CC(Oc1nc(-c2ccc(C(=O)N3CCC(N4CCCC4)CC3)cc2)cnc1N)c1c(F)ccc(F)c1Cl` (centres unmarked) [II-111, (4-{5-Amino-6-[1-(2-chloro-3,6-difluoro-phenyl)-ethoxy]-pyrazin-2-yl}-phenyl)-(4-pyrrolidin-1-yl-piperidin-1-yl)-methanone], for which the pIC50 is 6.77.

On to `CC(Oc1nc(-c2ccc(C(=O)N3C[C@@H](C)N[C@@H](C)C3)cc2)cnc1N)c1c(F)ccc(F)c1Cl` (some centres unmarked) [II-112], for which the pIC50 is 6.72.

In the case of `CC(Oc1nc(-c2ccc(C(=O)N3CCC[C@H]3CN3CCCC3)cc2)cnc1N)c1c(F)ccc(F)c1Cl` (stereo partly drawn) [II-113, (4-{5-Amino-6-[1-(2-chloro-3,6-difluoro-phenyl)-ethoxy]-pyrazin-2-yl}-phenyl)-((S)-2-pyrrolidin-1-ylmethyl-pyrrolidin-1-yl)-methanone], the pIC50 was 6.74.

For the compound `CC(Oc1nc(-c2ccc(C(=O)N3CCC[C@@H]3CN3CCCC3)cc2)cnc1N)c1c(F)ccc(F)c1Cl` (stereo partly drawn) [II-114, (4-{5-Amino-6-[1-(2-chloro-3,6-difluoro-phenyl)-ethoxy]-pyrazin-2-yl}-phenyl)-((R)-2-pyrrolidin-1-ylmethyl-pyrrolidin-1-yl)-methanone], the negative logarithm of the IC50 (pIC50) is 6.89.

`CC(Oc1nc(-c2ccc(C(=O)N3CC[C@@H](N)C3)cc2)cnc1N)c1c(F)ccc(F)c1Cl` (stereo partly drawn) [II-115, (4-{5-Amino-6-[1-(2-chloro-3,6-difluoro-phenyl)-ethoxy]-pyrazin-2-yl}-phenyl)-((R)-3-amino-pyrrolidin-1-yl)-methanone]: the pIC50 was 7.11.

Take `CC(Oc1nc(-c2ccc(C(=O)NC3CCN(C)CC3)cc2)cnc1N)c1c(F)ccc(F)c1Cl` (centres unmarked) [II-116, 4-{5-Amino-6-[1-(2-chloro-3,6-difluoro-phenyl)-ethoxy]-pyrazin-2-yl}-N-(1-methyl-piperidin-4-yl)-benzamide]: the negative logarithm of the IC50 (pIC50) is 6.72.

Consider `CC(Oc1nc(-c2ccc(C(=O)NCCN3CCCC3)cc2)cnc1N)c1c(F)ccc(F)c1Cl` (centres unmarked) [II-117, 4-{5-Amino-6-[1-(2-chloro-3,6-difluoro-phenyl)-ethoxy]-pyrazin-2-yl}-N-(2-pyrrolidin-1-yl-ethyl)-benzamide], for which the negative-log IC50 (pIC50) was 6.96.

Regarding `CC(Oc1nc(-c2ccc(C(=O)NCCN3CCOCC3)cc2)cnc1N)c1c(F)ccc(F)c1Cl` (centres unmarked) [II-118, 4-{5-Amino-6-[1-(2-chloro-3,6-difluoro-phenyl)-ethoxy]-pyrazin-2-yl}-N-(2-morpholin-4-yl-ethyl)-benzamide], the pIC50 is 6.59.

`CC(=O)N1CCN(CCNC(=O)c2ccc(-c3cnc(N)c(OC(C)c4c(F)ccc(F)c4Cl)n3)cc2)CC1` (centres unmarked) [II-119, N-[2-(4-Acetyl-piperazin-1-yl)-ethyl]-4-{5-amino-6-[1-(2-chloro-3,6-difluoro-phenyl)-ethoxy]-pyrazin-2-yl}-benzamide]: the negative-log IC50 (pIC50) was 6.32.

A word on the pIC50: it is −log10 of the IC50, conventionally taken in molar units.
